Measured values taken from patent US20260297070A1, “CYCLIC [COMPOUND LEFT OUT] WRN INHIBITORS” (Nimbus Wadjet, Inc., priority 2023, published 2026).

target: T1, human Werner helicase (WRN-BV08, Uniprot Q14191, amino acids 517-1235 with L1074F point mutation) (Homo sapiens, UniProt Q14191, L1074F); assay: WRN (BV08) ADP-Glo Assay; assay type: biochemical; settings: 0.15 nM WRN, 5 μM ATP, 0.1 nM DNA duplex, 15 min preincubation, 60 min at 25° C., pH 7.5, 1% DMSO; read-out: ADP-Glo_hWRN_IC50
T1 construct: Uniprot Q14191, amino acids 517-1235 with L1074F point mutation; TEV-cleavable 8×His (C, cleaved yes); made in house; host or cells: Sf9 insect cells (baculovirus)
Method in brief: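 ADP-Glo luminescence read-out of ATP hydrolysis. Conditions: 0.15 nM WRN, 5 μM ATP, 0.1 nM DNA duplex, 1% DMSO, 60 min at 25 °C after 15 min compound preincubation. Max/min controls were DMSO and 20 μM NSC-617145; IC50 from four-parameter fit.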

T1 sequence (Q14191 with tags, fused parts or gaps L1074F limits assumed): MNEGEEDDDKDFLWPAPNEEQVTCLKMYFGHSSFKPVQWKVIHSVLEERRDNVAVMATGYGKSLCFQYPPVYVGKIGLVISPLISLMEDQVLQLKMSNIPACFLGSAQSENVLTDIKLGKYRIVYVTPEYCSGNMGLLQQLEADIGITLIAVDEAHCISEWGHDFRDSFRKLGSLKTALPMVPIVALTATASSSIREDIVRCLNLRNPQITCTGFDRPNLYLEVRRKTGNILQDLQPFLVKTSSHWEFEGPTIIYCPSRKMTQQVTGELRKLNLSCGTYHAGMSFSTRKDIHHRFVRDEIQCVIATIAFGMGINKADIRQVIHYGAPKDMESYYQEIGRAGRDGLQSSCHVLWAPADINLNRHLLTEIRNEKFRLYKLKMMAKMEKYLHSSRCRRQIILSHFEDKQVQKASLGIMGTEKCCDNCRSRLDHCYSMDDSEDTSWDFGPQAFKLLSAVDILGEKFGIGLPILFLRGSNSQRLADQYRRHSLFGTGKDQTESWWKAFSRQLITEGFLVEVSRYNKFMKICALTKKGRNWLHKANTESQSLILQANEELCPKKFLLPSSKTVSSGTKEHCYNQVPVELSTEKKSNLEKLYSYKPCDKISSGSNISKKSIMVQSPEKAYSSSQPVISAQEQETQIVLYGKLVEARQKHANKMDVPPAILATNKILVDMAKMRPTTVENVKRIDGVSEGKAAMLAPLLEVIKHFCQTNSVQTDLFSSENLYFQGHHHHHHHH

IC50 [µM] | Structure (SMILES)
> 50 | Cn1cc(CCC(=O)N(Cc2ccncc2)C2C=CS(=O)(=O)C2)c2ccc(Br)cc21 (stereo not drawn) [I-565, 3-(6-bromo-1-methyl-1H-indol-3-yl)-N-(1,1-dioxo-2,3-dihydro-1lambda6-thiophen-3-yl)-N-[(pyridin-4-yl)methyl]propanamide]
> 50 | O=C(c1ccncc1)N(CCc1ccc(-n2cccc2)cc1)C1C=CS(=O)(=O)C1 (stereo not drawn) [I-553, N-(1,1-dioxo-2,3-dihydro-1lambda6-thiophen-3-yl)-N-{2-[4-(1H-pyrrol-1-yl)phenyl]ethyl}pyridine-4-carboxamide]
0.5 to 5 | CC(C)(O)c1cc(CN(C(=O)C(OCCC(F)(F)F)c2ccc(-c3ccc(F)c(F)c3)cc2F)[C@@H]2C=CS(=O)(=O)C2)ccn1 (single isomer, unassigned) [I-790]
> 50 | CN(C)C(=O)C(C(=O)N(Cc1ccncc1)C1C=CS(=O)(=O)C1)c1ccc(-c2ccc(F)cc2)cc1 (single isomer, unassigned) [I-375, (2R**)-N′-[(3R*)-1,1-dioxo-2,3-dihydro-1lambda6-thiophen-3-yl]-2-{4′-fluoro-[1,1′-biphenyl]-4-yl}-N,N-dimethyl-N′-[(pyridin-4-yl)methyl]propanediamide]
> 50 | COc1cc(CN(C(=O)C(OC2COC2)c2ccc(-c3ccc(F)c(F)c3)cc2F)[C@@H]2C=CS(=O)(=O)C2)ccn1 (single isomer, unassigned) [I-741, (2R*)-N-[(3R)-1,1-dioxo-2,3-dihydro-1lambda6-thiophen-3-yl]-N-[(2-methoxypyridin-4-yl)methyl]-2-(oxetan-3-yloxy)-2-{3,3′,4′-trifluoro-[1,1′-biphenyl]-4-yl}acetamide]
0.5 to 5 | COc1cc(CN(C(=O)C(c2ccc(-c3ccc(F)c(F)c3)cc2F)n2cc(C#N)cn2)[C@@H]2C=CS(=O)(=O)C2)ccn1 (stereo partly drawn) [I-706, 2-(4-cyano-1H-pyrazol-1-yl)-N-[(3R)-1,1-dioxo-2,3-dihydro-1lambda6-thiophen-3-yl]-N-[(2-methoxypyridin-4-yl)methyl]-2-{3,3′,4′-trifluoro-[1,1′-biphenyl]-4-yl}acetamide]
< 0.5 | O=C(Cn1cc(-c2cc(F)c(F)c(F)c2)cn1)N(Cc1cc(C2CC2)ns1)C1C=CS(=O)(=O)C1 (stereo not drawn) [I-824, N-[(3-cyclopropyl-1,2-thiazol-5-yl)methyl]-N-(1,1-dioxo-2,3-dihydro-1lambda6-thiophen-3-yl)-2-[4-(3,4,5-trifluorophenyl)-1H-pyrazol-1-yl]acetamide]
> 50 | CN(C)C(=O)CC(C(=O)N(Cc1ccncc1)C1C=CS(=O)(=O)C1)c1ccc(-n2cccc2)cc1 (stereo not drawn) [I-551, N-(1,1-dioxo-2,3-dihydro-1lambda6-thiophen-3-yl)-N′,N′-dimethyl-N-[(pyridin-4-yl)methyl]-2-[4-(1H-pyrrol-1-yl)phenyl]butanediamide]
> 50 | O=C(Cc1coc(-c2ccc(F)c(F)c2)n1)N(Cc1ccncc1)C1C=CS(=O)(=O)C1 (stereo not drawn) [I-410, 2-[2-(3,4-difluorophenyl)-1,3-oxazol-4-yl]-N-(1,1-dioxo-2,3-dihydro-1lambda6-thiophen-3-yl)-N-[(pyridin-4-yl)methyl]acetamide]
> 50 | O=C(Cc1ccc(-n2cccc2)cc1)N(Cc1ncccn1)C1C=CS(=O)(=O)C1 (stereo not drawn) [I-483, N-(1,1-dioxo-2,3-dihydro-1lambda6-thiophen-3-yl)-N-[(pyrimidin-2-yl)methyl]-2-[4-(1H-pyrrol-1-yl)phenyl]acetamide]
> 50 | COC(C(=O)N(Cc1ccncc1)C1C=CS(=O)(=O)C1)c1ccc(-c2ccc(F)cc2)cc1 (single isomer, unassigned) [I-575, (2R*)-N-[(3R**)-1,1-dioxo-2,3-dihydro-1lambda6-thiophen-3-yl]-2-{4′-fluoro-[1,1′-biphenyl]-4-yl}-2-methoxy-N-[(pyridin-4-yl)methyl]acetamide]
> 50 | O=C(Cc1cnc(C(F)(F)F)cn1)N(Cc1ccncc1)C1C=CS(=O)(=O)C1 (stereo not drawn) [I-627, N-(1,1-dioxo-2,3-dihydro-1lambda6-thiophen-3-yl)-N-[(pyridin-4-yl)methyl]-2-[5-(trifluoromethyl)pyrazin-2-yl]acetamide]
10 to 50 | O=C(Cc1ccc(C(F)(F)F)c(Cl)c1)N(Cc1ccncc1)C1C=CS(=O)(=O)C1 (stereo not drawn) [I-299, 2-[3-chloro-4-(trifluoromethyl)phenyl]-N-(1,1-dioxo-2,3-dihydro-1lambda6-thiophen-3-yl)-N-[(pyridin-4-yl)methyl]acetamide]
10 to 50 | C[Si](C)(C)c1ccc(CC(=O)N(Cc2ccncc2)C2C=CS(=O)(=O)C2)cc1 (stereo not drawn) [I-587, N-(1,1-dioxo-2,3-dihydro-1lambda6-thiophen-3-yl)-N-[(pyridin-4-yl)methyl]-2-[4-(trimethylsilyl)phenyl]acetamide]
5 to 10 | COc1cc(CN(C(=O)C(OC2CS(=O)(=O)C2)c2ccc(-c3ccc(F)c(F)c3)cc2F)[C@@H]2C=CS(=O)(=O)C2)ccn1 (single isomer, unassigned) [I-835, (2R*)-2-[(1,1-dioxo-1lambda6-thietan-3-yl)oxy]-N-[(3R)-1,1-dioxo-2,3-dihydro-1lambda6-thiophen-3-yl]-N-[(2-methoxypyridin-4-yl)methyl]-2-{3,3′,4′-trifluoro-[1,1′-biphenyl]-4-yl}acetamide]
0.5 to 5 | COc1cc(CN(C(=O)Cc2ccc(-c3ccc(F)cc3)cc2)C2C=CS(=O)(=O)C2)ccn1 (stereo not drawn) [I-158, N-(1,1-dioxo-2,3-dihydro-1lambda6-thiophen-3-yl)-2-{4′-fluoro-[1,1′-biphenyl]-4-yl}-N-[(2-methoxypyridin-4-yl)methyl]acetamide]
< 0.5 | CC(C(=O)N(Cc1ccnc(C(C)(C)O)c1)[C@@H]1C=CS(=O)(=O)C1)n1cc(-c2cc(F)c(F)c(F)c2)cn1 (single isomer, unassigned) [I-789]
< 0.5 | CNC(=O)C(C(=O)N(Cc1ccnc(OC)c1)[C@@H]1C=CS(=O)(=O)C1)c1ccc(-c2ccc(F)c(F)c2)cc1F (stereo partly drawn) [I-688, N′-[(3R)-1,1-dioxo-2,3-dihydro-1lambda6-thiophen-3-yl]-N′-[(2-methoxypyridin-4-yl)methyl]-N-methyl-2-{3,3′,4′-trifluoro-[1,1′-biphenyl]-4-yl}propanediamide]
5 to 10 | O=C(C1Cc2cc(-c3ccc(F)cc3)ccc21)N(Cc1ccncc1)C1C=CS(=O)(=O)C1 (stereo not drawn) [I-249, N-(1,1-dioxo-2,3-dihydro-1lambda6-thiophen-3-yl)-3-(4-fluorophenyl)-N-[(pyridin-4-yl)methyl]bicyclo[4.2.0]octa-1(6),2,4-triene-7-carboxamide]
< 0.5 | CC(C)(O)COc1cc(CN(C(=O)Cc2ccc(S(F)(F)(F)(F)F)cc2)C2C=CS(=O)(=O)C2)ccn1 (stereo not drawn) [I-768, N-(1,1-dioxo-2,3-dihydro-1lambda6-thiophen-3-yl)-N-{[2-(2-hydroxy-2-methylpropoxy)pyridin-4-yl]methyl}-2-[4-(pentafluoro-lambda6-sulfanyl)phenyl]acetamide]
> 50 | O=C(Cc1ccn(-c2ccccc2)n1)N(Cc1ccncc1)C1C=CS(=O)(=O)C1 (stereo not drawn) [I-390, N-(1,1-dioxo-2,3-dihydro-1lambda6-thiophen-3-yl)-2-(1-phenyl-1H-pyrazol-3-yl)-N-[(pyridin-4-yl)methyl]acetamide]
> 50 | O=C(Cn1cnc(-c2ccccc2)n1)N(Cc1ccncc1)C1C=CS(=O)(=O)C1 (stereo not drawn) [I-420, N-(1,1-dioxo-2,3-dihydro-1lambda6-thiophen-3-yl)-2-(3-phenyl-1H-1,2,4-triazol-1-yl)-N-[(pyridin-4-yl)methyl]acetamide]
< 0.5 | COC(C(=O)N(Cc1ccnc(C(C)(C)O)c1)C1C=CS(=O)(=O)C1)c1ccc(-c2ccc(F)cc2)cc1F (single isomer, unassigned) [I-10, (2R*)-2-{3,4′-difluoro-[1,1′-biphenyl]-4-yl}-N-[(3R**)-1,1-dioxo-2,3-dihydro-1lambda6-thiophen-3-yl]-N-{[2-(2-hydroxypropan-2-yl)pyridin-4-yl]methyl}-2-methoxyacetamide]
5 to 10 | COc1cc(CN(C(=O)Cc2ccc(-c3ccc(F)cc3)cc2)C2C=CS(=O)(=O)C2)on1 (stereo not drawn) [I-247, N-(1,1-dioxo-2,3-dihydro-1lambda6-thiophen-3-yl)-2-{4′-fluoro-[1,1′-biphenyl]-4-yl}-N-[(3-methoxy-1,2-oxazol-5-yl)methyl]acetamide]
0.5 to 5 | O=C(Cc1ccc(-n2cccc2)cc1)N(Cc1nc(CC(F)(F)F)cs1)C1C=CS(=O)(=O)C1 (stereo not drawn) [I-148, N-(1,1-dioxo-2,3-dihydro-1lambda6-thiophen-3-yl)-2-[4-(1H-pyrrol-1-yl)phenyl]-N-{[4-(2,2,2-trifluoroethyl)-1,3-thiazol-2-yl]methyl}acetamide]
0.5 to 5 | COc1cc(CN(C(=O)C(OCC2CCCN(S(C)(=O)=O)C2)c2ccc(-c3ccc(F)c(F)c3)cc2F)[C@@H]2C=CS(=O)(=O)C2)ccn1 (stereo partly drawn) [I-809, N-[(3R)-1,1-dioxo-2,3-dihydro-1lambda6-thiophen-3-yl]-2-[(1-methanesulfonylpiperidin-3-yl)methoxy]-N-[(2-methoxypyridin-4-yl)methyl]-2-{3,3′,4′-trifluoro-[1,1′-biphenyl]-4-yl}acetamide]

same assay, conditions: ADP-Glo_hWRN_IC50, 0.15 nM WRN, 5 μM ATP, 0.1 nM DNA duplex, 15 min preincubation, 60 min at 25° C., pH 7.5, 1% DMSO

IC50 [µM] | Structure (SMILES)
> 50 | O=C(CN1CC=C(c2ccccc2)CC1)N(Cc1ccncc1)C1C=CS(=O)(=O)C1 (stereo not drawn) [I-478, N-(1,1-dioxo-2,3-dihydro-1lambda6-thiophen-3-yl)-2-(4-phenyl-1,2,3,6-tetrahydropyridin-1-yl)-N-[(pyridin-4-yl)methyl]acetamide]
